Where “and” joins values, the source holds several entries; their conditions need not be identical. Identical values can stand only once.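 Assay format: 96-well plates, 48-hour exposure. Here, GI50 denotes the concentration required for 50% inhibition of growth. TGI denotes the concentration required for complete inhibition of growth.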
Tests used:
Experiment in all cases: NCI-60 cell line screen, 48 h
COLO 205 colon = test system: COLO 205 colon
RPMI-8226 leukemia = test system: RPMI-8226 leukemia
A498 renal = test system: A498 renal
NCI/ADR-RES ovarian = test system: NCI/ADR-RES ovarian
SF-268 CNS = test system: SF-268 CNS
HOP-92 NSCLC = test system: HOP-92 NSCLC
OVCAR-8 ovarian = test system: OVCAR-8 ovarian
PC-3 prostate = test system: PC-3 prostate
NCI-H522 lung = test system: NCI-H522 lung
HL-60(TB) leukemia = test system: HL-60(TB) leukemia

Row | SMILES | GI50 (COLO 205 colon) | TGI (COLO 205 colon) | GI50 (RPMI-8226 leukemia) | TGI (RPMI-8226 leukemia) | GI50 (A498 renal) | TGI (A498 renal) | GI50 (NCI/ADR-RES ovarian) | TGI (NCI/ADR-RES ovarian) | GI50 (SF-268 CNS) | TGI (SF-268 CNS) | GI50 (HOP-92 NSCLC) | TGI (HOP-92 NSCLC) | GI50 (OVCAR-8 ovarian) | TGI (OVCAR-8 ovarian) | GI50 (PC-3 prostate) | TGI (PC-3 prostate) | GI50 (NCI-H522 lung) | TGI (NCI-H522 lung) | GI50 (HL-60(TB) leukemia) | TGI (HL-60(TB) leukemia)
1 | Cc1c(C)[n+](=O)c(C)c(C)n1[O-] | > 100 µM | > 100 µM | > 100 µM | > 100 µM | > 100 µM | > 100 µM | > 100 µM | > 100 µM | > 100 µM | > 100 µM | 2.91 µM | > 100 µM | > 100 µM | > 100 µM | > 100 µM | > 100 µM | – | – | – | –
2 | S=C1Nc2ccc(Cl)cc2C2(c3ccccc3)N3CCN=C3NN12 (centres undefined) | 26.3 µM | > 100 µM | 21.7 µM | 57.3 µM | – | – | 48.8 µM | > 100 µM | 28.6 µM | > 100 µM | 32.3 µM | > 100 µM | 52.3 µM | > 100 µM | 39.3 µM | > 100 µM | 21.7 µM | 48.1 µM | 22.7 µM | 53 µM
3 | C/C(=N\N=C(/[Se])N1CC2CCC(CC2)C1)c1ccccn1 | – | 0.063 µM | – | 0.22 µM | – | 1.31 µM | – | – | – | 5.43 µM | – | 1.18 µM | – | 2.34 µM | – | 1.26 µM | – | 0.615 µM | – | 0.489 µM
4 | O=C(CC(=O)N1N=C(N2c3ccccc3Sc3ccccc32)CC1c1ccccc1)Nc1ccc(Cl)cc1 (centres undefined) | – | > 100 µM | – | – | – | > 100 µM | – | – | – | > 100 µM | – | > 100 µM | – | > 100 µM | – | – | – | – | – | –
5 | C1OC1CO[C@@H]1CO[C@H]2[C@@H]1OC[C@H]2OCC1CO1 (some centres undefined) | – | > 100 µM | – | > 100 µM | – | > 100 µM | – | – | – | > 100 µM | – | > 100 µM | – | > 100 µM | – | – | – | > 100 µM | – | > 100 µM
6 | Cc1ccc(SC2=CC(=O)c3nc4ccccc4c4ccnc2c34)cc1 | 39.4 µM | > 85.6 µM | 30.1 µM | > 100 µM | > 100 µM | > 100 µM | 27.9 µM | > 95.4 µM | 29.7 µM | > 70.7 µM | 20 µM | 38.2 µM | 18 µM | 41.2 µM | 22 µM | 71.2 µM | 16.3 µM | 38.4 µM | – | –
7 | CC#CC1/C(=C\C(=O)OC)CCCC1O (centres undefined) | – | – | – | – | – | > 100 µM | – | – | – | > 100 µM | – | – | – | > 100 µM | – | – | – | > 100 µM | – | > 100 µM
8 | c1ccc2c(c1)[nH]c1cnc3c4cccnc4[nH]c3c12 | – | 30.3 µM | – | 58.5 µM | – | > 100 µM | – | – | – | 36.1 µM | – | 60.7 µM | – | 32 µM | – | – | – | – | – | 35.5 µM
9 | COc1cccc2c1C(=O)c1c(O)c3c(c(O)c1C2=O)C[C@@](O)(C(=O)CO)C[C@@H]3OC1C[C@H](N)[C@H](O)[C@H](C)O1 (some centres undefined) | 0.0904 µM | 0.446 µM | 0.0909 µM | 1.28 µM | 0.0482 µM | 0.146 µM | – | – | 0.0616 µM | 0.982 µM | 0.0236 µM | 0.233 µM | 0.067 µM | > 16.2 µM | 0.112 µM | 1.22 µM | 0.0334 µM | 0.317 µM | 0.078 µM | 0.593 µM
10 | O=C(Cc1cccc(OC(F)(F)F)c1)Nc1ccc(CCCCc2nnc(NC(=O)Cc3ccccn3)s2)nn1 | 23.8 µM | > 100 µM | 0.452 µM | 32.3 µM | – | – | > 100 µM | > 100 µM | 13.6 µM | 39.1 µM | 6.19 µM | 25.9 µM | 15.8 µM | 54.8 µM | 18.3 µM | > 100 µM | 12.2 µM | 40.1 µM | 8.34 µM | > 100 µM
11 | COc1cc2c[n+](C)c3c4ccccc4ccc3c2cc1OC (tested in a mixture with another compound) | 1.46 µM | 5.02 µM and 14 µM | 1.71 µM | – | – | – | – | > 100 µM | – | 2.86 µM and 10.4 µM | 5.25 µM | 28.6 µM | 3.57 µM | 31.7 µM | – | 20.1 µM | 0.785 µM | 4.37 µM and 11.6 µM | 4.56 µM | > 84.2 µM
12 | NC(=O)C(c1ccccc1)N1CCOCC1 (centres undefined) | – | > 100 µM | – | > 100 µM | – | > 100 µM | – | – | – | > 100 µM | – | > 100 µM | – | > 100 µM | – | – | – | > 100 µM | – | > 100 µM
13 | O=C1C(=O)N(c2ccc(Cl)cc2Cl)C(=O)C(=O)C1c1nc2ccccc2o1 | – | > 100 µM | – | > 100 µM | – | > 100 µM | – | – | – | > 100 µM | – | > 100 µM | – | > 100 µM | – | – | – | > 100 µM | – | > 100 µM
14 | O=C1CN(C(=O)c2ccccc2)Cc2[nH]c3ccccc3c21 | – | > 100 µM | – | > 100 µM | – | – | – | – | – | – | – | > 100 µM | – | > 100 µM | – | – | – | > 100 µM | – | > 100 µM
15 | Cc1cc(NS(=O)(=O)c2ccc(NC(=O)c3cccc4c(Nc5ccc(S(=O)(=O)N=C(N)N)cc5)c5ccccc5nc34)cc2)no1 | – | > 100 µM | – | > 100 µM | – | > 100 µM | – | – | – | > 100 µM | – | > 100 µM | – | > 100 µM | – | – | – | > 100 µM | – | > 100 µM
16 | C=C1C(=O)O[C@H]2[C@H]1CC/C(COC(=O)CSCC(=O)OC/C1=C/CC[C@@]3(C)O[C@H]3[C@H]3OC(=O)C(=C)[C@@H]3CC1)=C\CC[C@@]1(C)O[C@@H]21 | 0.887 µM | 2.44 µM | 1.45 µM | 4.01 µM | – | – | 12 µM | 40.2 µM | 3.28 µM | 13.9 µM | 1.43 µM | 3.6 µM | 1.48 µM | 4.21 µM | 2.21 µM | 6.92 µM | 1.08 µM | 2.49 µM | 0.432 µM | 2.07 µM
17 | NC(N)=NNC(=O)CCCCCCCC(=O)NN=C(N)N | – | 35.4 µM | – | – | – | > 100 µM | – | – | – | > 100 µM | – | – | – | – | – | – | – | – | – | > 100 µM
18 | CO[C@@H]1/C=C(C)/C=C/[C@@H](C)/C=C(\C)C(=O)OC(/C(C)=C/C=C(\C)CNC(=O)[C@H](CO)NC=O)[C@@H](C)/C=C/C=C/[C@H](OC)CC/C=C(C)/C=C/C1 (some centres undefined) | 0.00816 µM | 0.627 µM | < 0.005 µM | 11.8 µM | – | – | 0.0587 µM | 15.4 µM | < 0.005 µM | 1.09 µM | < 0.005 µM | 0.0852 µM | 0.0105 µM | 3.18 µM | < 0.005 µM | 6.91 µM | < 0.005 µM | 18.7 µM | < 0.005 µM | > 50 µM
19 | CC(=O)OC1(C)C(=O)OC1(C)C(C)=O (centres undefined) | – | > 100 µM | – | > 100 µM | – | > 100 µM | – | – | – | > 100 µM | – | > 100 µM | – | > 100 µM | – | – | – | > 100 µM | – | > 100 µM

Source: PubChem BioAssay (NCI)
